Values quoted from earlier work in patent US12686875B2, “Small molecules for increasing precise genome editing efficiency” (Max-Planck-Gesellschaft zur Förderung der Wissenschaften …, priority 2018, dated 2026).

Columns and labels:
[1] = test system: mouse ESCs; conditions: dsODN donors, from 17.7% without L755507 (Yu et al. 2015); cited from earlier work
[2] = test system: hiPSCs; conditions: cited from earlier work
[3] = test system: precise genome editing (PGE); conditions: SCR7 and L755507 added together with RS-1; cited from earlier work
[4] = test system: HEK293A cells; conditions: cited from earlier work
[5] = test system: porcine fetal fibroblasts; conditions: ssODN donors (Wang et al. 2016); cited from earlier work
[6] = test system: rabbit embryos; conditions: dsODN donors, from 4.4% without RS-1; cited from earlier work
[7] = test system: U2OS cells; conditions: dsODN donors, from 1.9% without RS-1; cited from earlier work

**Q.** Which PGE [1] does the source give for `CCCCCCNC(=O)Nc1ccc(S(=O)(=O)Nc2ccc(CCNC[C@H](O)COc3ccc(O)cc3)cc2)cc1` [L755507] here?
**A.** The PGE was 33.3%.

**Q.** What about the “stimulation of PGE” value ([2]; hiPSCs (Zhang et al. 2017)) of the same molecule?
**A.** Its value is “did not find significant stimulation”.

**Q.** What about the PGE ([2]; hiPSCs, ssODN, from 0.35% without L755507 (Yu et al. 2015)) of the same molecule?
**A.** The PGE was 3.13%.

**Q.** What about the “effect on PGE when added together with RS-1, compared to RS-1 alone” value [3] of the same molecule?
**A.** Its value is “no additive effect”.

**Q.** What about the “effect on PGE” value [4] of the same molecule?
**A.** The value was “did not find significant stimulation”.

**Q.** For `O=C(Nc1ccc(Br)cc1)c1ccc(Br)c(S(=O)(=O)NCc2ccccc2)c1` [RS-1], which “increase of PGE” value ([2]; hiPSCs, dsODN donors (Zhang et al., 2017)) is on record?
**A.** Its value is “not”.

**Q.** And the “effect on PGE efficiency” value [5]?
**A.** The value was “No effect”.

**Q.** What about the PGE [6] of the same molecule?
**A.** Its PGE is 26.1%.

**Q.** And the PGE ([4]; dsODN donors, from 3.5% without RS-1)?
**A.** The PGE was 21%.

**Q.** What about the PGE [7] of the same molecule?
**A.** The PGE was 2.4%.
